Measured values as given in patent publication US12721845B2, “Therapeutic or prophylactic agent for cachexia accompanied by ghrelin resistance” (Toray Industries, Inc., priority 2021, dated 2026).
Where a name gives a salt, the structure may show the parent alone.

Experiments:
[1] = test system: tumor-bearing mouse model (non-small cell lung cancer model accompanied by ghrelin resistance); experiment: Example 1: food intake and body weight in tumor-bearing mouse model (A549 cells transplanted into nude mice); assay type: in vivo; settings: for body weight after 5-day administration / cumulative food intake in the period of administration: vs distilled water group
Description: Using tumor-bearing model animals where adenocarcinomic human alveolar basal epithelial cells, A549 cells, were transplanted into nude mice, examination was performed about drug efficacy of Compound 1 on the food intake and the body weight.
Subculture of A549 cells was performed using a 10% FBS-containing RPMI1640 culture medium. In evaluation of drug efficacy, 6-week-old female BALB/C slc/nu/nu mice (Japan SLC, Inc.) were purchased, and were used after habituated for one week. Tumor-bearing model animals were prepared as follows. Specifically, 2.5×10^7 cells of A549 cells were transplanted to the right abdominal region of each mouse by subdermal administration. On Day 43 from the cell transplantation, the mice were divided into groups to have an equal averaged tumor volume.
The effects of a variety of compounds on food intake and body weight were examined as follows. Specifically, for 5 days from Day 44 to Day 48 from the cell transplantation, the compounds were orally administered daily, and the food intake and the body weight were measured at the same time. The doses of Compound 1 were 0.25 mg/kg (6 animals), 0.5 mg/kg (6 animals), and 1 mg/kg (6 animals). To verify that the model animals are in a ghrelin resistant state, anamorelin hydrochloride (MedChemExpress) was used at 30 mg/kg (6 animals). The food intake was calculated by subtracting the weight of feed on the previous day of measurement from the weight of feed on the day of measurement.
In FIG. 1, the ordinate represents the cumulative food intake in the period of administration of the compounds (from the start of administration to the day next to the final day of administration). In FIG. 2, the ordinate represents the percentage of changes in body weight on Day 6 from the start of administration of the compounds (the day next to the final day of administration) (after 5-day administration) (relative to the body weight measured immediately before the first administration of the compound designated as 100%). In the abscissas of FIGS. 1 and 2, “Distilled water” represents distilled water-treated group, “Compound 1 0.25” represents Compound 1-treated group at 0.25 mg/kg, “Compound 1 0.5” represents Compound 1-treated group at 0.5 mg/kg, “Compound 1 1” represents Compound 1-treated group at 1 mg/kg, and “Anamorelin” represents anamorelin hydrochloride-treated group at 30 mg/kg. In FIGS. 1 and 2, the mark “*” represents a statistical significance (*: P<0.05) in comparison with distilled water-treated group (Dunnett's multiple test).

[2] = test system: tumor-bearing mouse model (non-small cell lung cancer model accompanied by ghrelin resistance); experiment: Example 2: food intake and body weight in tumor-bearing mouse model (A549 cells transplanted into nude mice); assay type: in vivo
Description: Using tumor-bearing model animals where adenocarcinoma human alveolar basal epithelial cells, A549 cells, were transplanted into nude mice, examination was performed about drug efficacy of Compounds 1 and 2 on the food intake and the body weight.
Subculture of A549 cells was performed using a 10% FBS-containing RPMI1640 culture medium. In evaluation of drug efficacy, 7-week old female BALB/C slc/nu/nu mice (Japan SLC, Inc.) were purchased, and were used after habituated for one week. Tumor-bearing model animals were prepared as follows. Specifically, 2.5×10^7 cells of A549 cells were transplanted to the right abdominal region of each mouse by subdermal administration. On Day 43 from the cell transplantation, the mice were divided into groups to have an equal averaged tumor volume.
The effects of a variety of compounds on food intake and body weight were examined as follows. Specifically, for 5 days from Day 44 to Day 48 from the cell plantation, Compound 2 was intraperitoneally administered daily, Compound 1 and anamorelin hydrochloride were orally administered daily, and the amount of feed and the body weight were measured at the same time. Compound 2 was used at 1 mg/kg (9 animals), and Compound 1 was used at 0.25 mg/kg (9 animals), which is the lowest dose to exert drug efficacy. To verify that the model animals are in a ghrelin resistant state, anamorelin hydrochloride was used at 30 mg/kg (9 animals) herein. The food intake was calculated by subtracting the weight of feed on the previous day of measurement from the weight of feed on the day of measurement.
In FIG. 3, the ordinate represents the cumulative food intake in the period of administration of the compounds (from the start of administration to the day next to the final day of administration). In FIG. 4, the ordinate represents the percentage of changes in body weight on Day 6 from the start of administration of the compounds (the day next to the final day of administration) (after 5-day administration) (relative to the body weight measured immediately before the first administration of the compound designated as 100%). In the abscissas of FIGS. 3 and 4, “Normal saline” represents a group treated intraperitoneally with normal saline, “Compound 2” represents a group treated intraperitoneally with Compound 2 at 1 mg/kg, “Compound 1” represents a group treated orally with Compound 1 at 0.25 mg/kg, and “Aanamorelin” represents a group treated orally with anamorelin hydrochloride at 30 mg/kg. In FIGS. 3 and 4, the mark “*” represents a statistical significance (*: P<0.05) compared to the group treated with normal saline (Dunnett's multiple test).

[3] = test system: model of non-small cell lung cancer to which A549 cells have been transplanted subcutaneously; settings: cited from earlier work
normal animal = settings: anamorelin hydrochloride 30 mg/kg; cited from earlier work
[4] = Compound 1 0.25 mg/kg oral daily for 5 days, compared with Compound 2 1 mg/kg i.p.
[5] = Compound 2 1 mg/kg intraperitoneal daily for 5 days, vs normal saline group, Dunnett P<0.05
[6] = anamorelin hydrochloride 30 mg/kg oral daily for 5 days

**Q.** For CN(C(=O)/C=C/c1ccoc1)[C@@H]1CC[C@@]2(O)[C@H]3Cc4ccc(O)c5c4[C@@]2(CCN3CC2CC2)[C@H]1O5 [Compound 1, (−)-17-(cyclopropylmethyl)-3,14β-dihydroxy-4,5α-epoxy-6β-[N-methyl-trans-3-(3-furyl)acrylamide]morphinan hydrochloride], which “body weight after 5-day administration” value ([1]; Compound 1 0.25 mg/kg oral daily for 5 days) is on record?
**A.** tendency of an increase in body weight

**Q.** And the “body weight after 5-day administration” value ([1]; Compound 1 0.5 mg/kg oral daily for 5 days, Dunnett P<0.05)?
**A.** statistically significant increasing effect in body weight

**Q.** What about the “body weight after 5-day administration” value ([1]; Compound 1 1 mg/kg oral daily for 5 days, Dunnett P<0.05) of the same molecule?
**A.** statistically significant increasing effect in body weight

**Q.** What about the “cumulative food intake in the period of administration” value (shortened to “cumulative food intake in the period”) ([1]; Compound 1 0.25, 0.5 and 1 mg/kg oral daily for 5 days (Day 44-48 from transplantation), Dunnett P<0.05) of the same molecule?
**A.** statistically significant increasing effect in food intake

**Q.** And the “lowest dose to exert drug efficacy” value ([1]; oral, tumor-bearing mouse model)?
**A.** 0.25 mg/kg

**Q.** What about the “body weight after 5-day administration” value [2, 4] of the same molecule?
**A.** increasing effect in body weight higher than those exhibited by Compound 2

**Q.** What about the “cumulative food intake in the period” value [2, 4] of the same molecule?
**A.** increasing effect in food intake and the increasing effect in body weight higher than those exhibited by Compound 2

**Q.** Which results are given for CC(C)C[C@@H](NC(=O)[C@@H](Cc1ccccc1)NC(=O)[C@H](N)Cc1ccccc1)C(=O)N[C@H](CCCCN)C(=O)N1CCC(N)(C(=O)O)CC1 [Compound 2, 4-amino-1-[(2R)-6-amino-2-[(2R)-2-[(2R)-2-[(2R)-2-amino-3-phenylpropanamide]-3-phenylpropanamide]-4-methylpentanamide]hexanoyl]piperidine-4-carboxylic acid]?
**A.** body weight after 5-day administration [2, 5]: statistically significant increasing effect in body weight; cumulative food intake in the period of administration [2, 5]: statistically significant increasing effect in food intake

**Q.** For CN(C)N(C)C(=O)[C@@]1(Cc2ccccc2)CCCN(C(=O)[C@@H](Cc2c[nH]c3ccccc23)NC(=O)C(C)(C)N)C1 [anamorelin hydrochloride, reference compound], which “body weight after 5-day administration” value [1, 6] is on record?
**A.** any statistically significant increasing effect in food intake or increasing effect in body weight was not observed

**Q.** And the “cumulative food intake in the period” value [1, 6]?
**A.** any statistically significant increasing effect in food intake or increasing effect in body weight was not observed

**Q.** And the “therapeutic effects on cachexia” value ([2]; anamorelin hydrochloride 30 mg/kg oral, administered from Day 44 after cell transplantation (Examples 1 and 2))?
**A.** no therapeutic effects were observed on cachexia

**Q.** What about the body weight ([3]; anamorelin hydrochloride 30 mg/kg, A549 cells transplanted subcutaneously in the abdominal region) of the same molecule?
**A.** increase in body weight

**Q.** What about the “therapeutic effects on cachexia” value ([3]; anamorelin hydrochloride administered on Day 23 from cell transplantation) of the same molecule?
**A.** achieved therapeutic effects on cachexia

**Q.** What about the body weight (normal animal) of the same molecule?
**A.** increase in body weight
